Results taken from US20220296595A1, “CDK INHIBITORS” (QILU REGOR THERAPEUTICS INC., priority 2019, published 2022).
Like-named read-outs stand apart in the source and are kept apart here.

How the values were obtained:
[1] = target: T1, CDK2/CyclinE1 (Homo sapiens, UniProt P24941); assay: Assay for inhibition of CDK2/CyclinE1 (Caliper microfluidic kinase assay); format: biochemical; settings: read-out: CDK2 IC50
T1 construct: purchased SignalChem C29-18G
Procedure, shortened: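 IC50 came from 4-parameter fits of substrate-to-product conversion, separated on a Caliper chip after an EDTA stop. Reactions ran 3 hours at room temperature with 100 μM ATP, 5 μM fluorescent FL-18 peptide and 5 nM enzyme in 100 mM HEPES pH 7.5, 10 mM MgCl2.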

[2] = target: T2, CDK4/CyclinD1 (Homo sapiens, UniProt P11802); assay: Assay for inhibition of CDK4/CyclinD1 (Caliper microfluidic kinase assay); format: biochemical
T2 construct: purchased Thermofisher PR8064A
T2 sequence (P11802 whole entry): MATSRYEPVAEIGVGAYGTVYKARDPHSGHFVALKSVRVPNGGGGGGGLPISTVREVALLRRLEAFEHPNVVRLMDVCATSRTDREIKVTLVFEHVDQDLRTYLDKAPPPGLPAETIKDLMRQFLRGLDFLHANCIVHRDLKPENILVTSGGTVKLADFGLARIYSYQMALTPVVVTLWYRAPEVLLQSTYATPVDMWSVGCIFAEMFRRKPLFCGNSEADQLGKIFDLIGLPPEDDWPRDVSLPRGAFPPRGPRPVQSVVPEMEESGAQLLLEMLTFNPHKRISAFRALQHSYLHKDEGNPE
T2 sequence (P24385 whole entry partner): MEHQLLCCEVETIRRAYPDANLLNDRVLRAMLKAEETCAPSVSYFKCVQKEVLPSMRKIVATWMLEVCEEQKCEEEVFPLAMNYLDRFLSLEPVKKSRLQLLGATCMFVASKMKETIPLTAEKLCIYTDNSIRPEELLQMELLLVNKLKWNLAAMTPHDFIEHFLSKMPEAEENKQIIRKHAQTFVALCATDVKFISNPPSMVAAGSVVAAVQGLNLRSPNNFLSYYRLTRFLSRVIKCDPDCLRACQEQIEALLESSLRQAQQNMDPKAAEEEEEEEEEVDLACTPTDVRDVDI
Procedure, shortened: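 IC50 was obtained by 4-parameter sigmoidal fitting after 1 nM CDK4/CyclinD1, 200 μM ATP and 1 μM FL-34 substrate reacted for 3 h at room temperature (pH 7.5 HEPES, 10 mM MgCl2). After EDTA quench, substrate and product were separated and detected on a Caliper microfluidic chip.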

[3] = system: T47D breast cancer cells; assay: Anti-proliferation assay in T47D cell (Cyquant, day 6); format: cell-based, human; settings: Homo sapiens, T47D, anti-proliferation, T47D cells; read-out: T47D IC50
Procedure, shortened: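 A ten-point, 3-fold compound series (10 μM down to 0.51 nM) was applied to overnight-settled cells in 10% FBS RPMI 1640, and DNA content was read by CyQuant fluorescence 6 days later. An untreated plate read before dosing served as baseline for subtraction before IC50 fitting.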

[4] = system: phosphorylation of Retinoblastoma Protein (pRb Ser807/811 or Ser780) in T47D cells; assay: Inhibition of phosphorylation of retinoblastoma protein (pRb) in T47D cell (ELISA); format: cell-based, human
Method: T47D breast cancer cells from American Type Culture Collection (ATCC, HTB-133) were plated at 40,000 cells/well in 96-well plates, and were incubated in RPMI 1640 medium (Gibco, 31800105) with 10% Fetal Bovine Serum (FBS, Biowest, FB-1058). Cells were then allowed to adhere overnight at 37° C., 5% CO2. The following day, compounds were titrated in a 3-fold dilution scheme, and the highest compound concentration tested was […]. After 24 hours incubation with compounds, cells were lysed in ice-cold lysis buffer containing phosphatase inhibitor cocktail and 1 mM PMSF. Cell lysates (50 μL/well) were then transferred to ELISA plates (pRb Ser807/811 ELISA kit, Cell Signaling, 13152 or pRb Ser780 ELISA kit, Cell Signaling, 13016)). Plates were incubated overnight at 4° C., with constant slow speed shaking. After incubation, plates were washed following manufacturer's recommendations, and then 100 μL reconstituted detection antibody was added to each well and incubated for 1 hour at 37° C. After incubation, plates were washed, and then 100 μL reconstituted HRP-linked secondary antibody was added to each well and incubated for 30 mins at 37° C. After incubation, plates were washed. Then, 100 μL TMB substrate was added to each well and incubated for 10 min at 37° C. or 30 min at 25° C. Finally, 100 μL of STOP solution was added to each well and mixed gently for a few seconds. Plates were read on the Envision plate reader (PerkinElmer, 2104-0010) using the 96-well […] mode. IC50 values were calculated using 4 parameter sigmoidal dose-response model of Xlfit5/GraphPad Prism 5 software.

[5] = target: T3, CDK6/CyclinD3 (Homo sapiens, UniProt Q00534); assay: Assay for inhibition of CDK6/CyclinD3 (Caliper microfluidic kinase assay); format: biochemical
T3 construct: purchased Carna 04-107
T3 sequence (Q00534 whole entry): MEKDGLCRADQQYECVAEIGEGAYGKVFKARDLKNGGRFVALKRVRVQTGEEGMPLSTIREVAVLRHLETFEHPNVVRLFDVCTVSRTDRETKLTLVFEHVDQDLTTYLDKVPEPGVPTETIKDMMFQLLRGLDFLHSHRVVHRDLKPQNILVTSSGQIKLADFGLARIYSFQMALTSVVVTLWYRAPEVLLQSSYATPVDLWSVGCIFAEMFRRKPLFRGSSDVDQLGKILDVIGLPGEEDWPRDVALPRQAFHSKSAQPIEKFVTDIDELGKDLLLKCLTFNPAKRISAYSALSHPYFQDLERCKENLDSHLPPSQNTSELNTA
T3 sequence (P30281 whole entry partner): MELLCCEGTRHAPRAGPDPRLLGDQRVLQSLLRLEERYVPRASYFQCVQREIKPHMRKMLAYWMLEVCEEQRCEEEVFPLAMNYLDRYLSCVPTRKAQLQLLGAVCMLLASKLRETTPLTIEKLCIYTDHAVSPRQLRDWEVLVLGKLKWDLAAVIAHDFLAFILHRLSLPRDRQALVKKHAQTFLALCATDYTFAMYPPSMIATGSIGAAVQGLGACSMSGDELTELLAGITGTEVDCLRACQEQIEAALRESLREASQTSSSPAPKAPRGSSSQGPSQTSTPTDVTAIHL
Method: The CDK6 enzyme assay for IC50 determination was performed as follows. Microfluidic kinase detection technology (Caliper) was used to monitor the phosphorylation of peptide substrate by CDK6/CyclinD3. The total reaction volume is 15 μL containing buffer A (100 mM HEPES (pH 7.5), 0.1% BSA, 0.01% Triton X-100, 1 mM DTT, 10 mM MgCl2, 10 μM Sodium Orthovanadate, 10 μM Beta-Glycerophosphate), 300 μM ATP, 2 nM CDK6/CyclinD3 (Carna, 04-107), 1 μM FL-34 (5-FAM-[…]), and the test compound at appropriate dilutions in DMSO. All components were added to the 384-well plate (Corning, 4514), and incubated at Room Temperature for 3 hours. The reaction was terminated by addition of 15 μL Stop Buffer (180 mM HEPES (pH 7.5), 20 mM EDTA, Coating-3 reagent (PerkinElmer, 760050)). The plate was then loaded on Caliper EZ Reader (EZ Reader II, PerkinElmer, HD-4HYSG2772), and the reaction mixtures including substrate and product were sipped into the microfluidic chip for separation and detection. The IC50 values of the test compound were determined by fitting the inhibition curves by 4 parameter sigmoidal dose-response model using the Xlfit5/GraphPad Prism 5 software.

[6] = Homo sapiens, T47D, read-out: Phospho T47D Ser807 IC50, pRb Ser807 phosphorylation, T47D cells

Compound	IC50 ([1]; CDK2/CyclinE1, 100 μM ATP) [nM]	IC50 ([2]; CDK4/CyclinD1, 200 μM ATP) [nM]	IC50 [3] [nM]	IC50 [4, 6] [nM]	IC50 ([5]; CDK6/CyclinD3, 300 μM ATP) [nM]	IC50 ([1]; CDK2/CyclinE1) [nM]	IC50 ([2]; CDK4/CyclinD1) [nM]	IC50 ([5]; CDK6/CyclinD3) [nM]	IC50 ([4]; pRb Ser807 phosphorylation, T47D cells, read-out: Phospho T47D Ser807 IC50) [nM]
CC(C)c1cnn2ccc(-c3ccnc(Nc4ccn(CC5CCN(C(=O)CO)CC5)n4)n3)cc12 [Synthetic Example 55]	> 1000	10 to 100	500 to 1000	100 to 500					
Cc1nc(Nc2ncc(F)c(-c3ccn4ncc(C(C)C)c4c3)n2)ccc1C(=O)N1CCC(NC2CC2)CC1 [compound 11]	100 to 1000	10 to 100	100 to 500		10 to 100				
CC(C)c1cnn2ccc(-c3nc(Nc4ccc(CN5CCOCC5=O)cn4)ncc3F)cc12 [compound 15]	100 to 1000	10 to 100	500 to 1000		100 to 1000				
CC(C)c1cnn2ccc(-c3ccnc(Nc4ccn(CC5CCNCC5)n4)n3)cc12 [compound 32]	> 1000	10 to 100	100 to 500	100 to 500					
CC(C)c1cnn2ccc(-c3ccnc(Nc4cnn(CC5CCNCC5)c4)n3)cc12 [compound 36]	10 to 100	10 to 100	100 to 500	100 to 500					
CC(C)c1cnn2c(C#N)cc(-c3ccnc(Nc4ccc(N5CCNCC5=O)cn4)n3)cc12 [compound 38]	> 1000	10 to 100	> 1000	500 to 1000					
CC(C)c1cnn2ccc(-c3ccnc(Nc4ccn(CC5CCN(C(=O)CC#N)CC5)n4)n3)cc12 [compound 56]	> 1000	10 to 100		100 to 500					
COc1nc(-c2nc(Nc3ccc(N4CC5CCC(C4)O5)cn3)ncc2F)cc2c1nc(C)n2C(C)C [compound 65]				100 to 500		> 1000	10 to 100		
COc1nc(-c2ccnc(Nc3ccc(N4CCOCC4)cn3)n2)cc2c1ncn2C(C)C [compound 66]			100 to 500	100 to 500		> 1000	< 10		
COc1nc(-c2ccnc(Nc3ccc(CN4CCC(C#N)C4)cn3)n2)cc2c1ncn2C(C)C (stereo not shown) [compound 67]				100 to 500		> 1000	10 to 100		
COc1nc(-c2ccnc(Nc3ccc(CN4CCC(F)(F)C4)cn3)n2)cc2c1ncn2C(C)C [compound 69]			100 to 500	100 to 500		> 1000	10 to 100		
COc1nc(-c2nc(Nc3ccc(N4CCOCC4=O)cn3)ncc2C)cc2c1nc(C)n2C(C)C [compound 75]			< 100			100 to 1000	< 10	10 to 100	
COc1nc(-c2ccnc(Nc3ccc(CN4CCC(F)C4)cn3)n2)cc2c1ncn2C(C)C (stereo not shown) [compound 76]				100 to 500		> 1000	10 to 100		
COc1nc(-c2nc(Nc3ccc(N4CCC5(CC4)CC(=O)NC5=O)cn3)ncc2F)cc2c1nc(C)n2C(C)C [compound 79]				100 to 500		> 1000	10 to 100		
COc1nc(-c2ccnc(Nc3ccc(CN4CCOCC4)cn3)n2)cc2c1ncn2C(C)C [compound 81]			100 to 500	100 to 500		> 1000	10 to 100		
COc1nc(-c2nc(Nc3ccc(N4CCCC4=O)cn3)ncc2F)cc2c1nc(C)n2C(C)C [compound 82]			100 to 500	100 to 500		100 to 1000	10 to 100		
COc1nc(-c2nc(Nc3ccc(C(=O)N4CCC(NC5CC5)CC4)c(C)n3)ncc2F)cc2c1nc(C)n2C(C)C [compound 86]			100 to 500			> 1000	10 to 100	10 to 100	

Compound	IC50 ([1]; CDK2/CyclinE1, 100 μM ATP) [nM]	IC50 ([2]; CDK4/CyclinD1, 200 μM ATP) [nM]	IC50 [3] [nM]	IC50 [4, 6] [nM]	IC50 ([5]; CDK6/CyclinD3, 300 μM ATP) [nM]	IC50 ([1]; CDK2/CyclinE1) [nM]	IC50 ([2]; CDK4/CyclinD1) [nM]	IC50 ([5]; CDK6/CyclinD3) [nM]	IC50 ([4]; pRb Ser807 phosphorylation, T47D cells, read-out: Phospho T47D Ser807 IC50) [nM]
COc1nc(-c2ccnc(Nc3ccc(N4CCOC(C)(C)C4)cn3)n2)cc2c1ncn2C(C)C [compound 88]			100 to 500	100 to 500		> 1000	10 to 100		
COc1nc(-c2ccnc(Nc3ccc(N4CCOC(C)C4)cn3)n2)cc2c1ncn2C(C)C (stereo not shown) [compound 96]			100 to 500	100 to 500		> 1000	10 to 100		
COc1nc(-c2ccnc(Nc3ccc(N4CC5CC4CO5)cn3)n2)cc2c1ncn2C(C)C (stereo not shown) [compound 104]			100 to 500	100 to 500		> 1000	10 to 100		
COc1nc(-c2nc(Nc3ccc(N4CCNCC4=O)cn3)ncc2F)cc2c1nc(C)n2C(C)C [compound 107]	> 1000	< 10	100 to 500		10 to 100				
COc1nc(-c2nc(Nc3ccc(N4CCN(CC(F)(F)F)CC4=O)cn3)ncc2F)cc2c1nc(C)n2C(C)C [compound 124]	> 1000	< 10	100 to 500		10 to 100				
COc1nc(-c2nc(Nc3ccc(N4CCN(CCF)CC4)cn3)ncc2F)cc2c1ncn2C(C)C [compound 125]	> 1000	10 to 100		100 to 500					
COc1nc(-c2ccnc(Nc3ccc(N4CCN(C5COC5)CC4)cn3)n2)cc2c1ncn2C(C)C [compound 130]	> 1000	< 10	100 to 500	100 to 500					
COc1nc(-c2nc(Nc3ccc(N4CCN(C5COC5)CC4)cn3)ncc2F)cc2c1ncn2C(C)C [compound 133]	> 1000	10 to 100		100 to 500					
CCNC1CCN(c2ccc(Nc3nccc(-c4ccn5ncc(C(C)C)c5c4)n3)nc2)C(=O)C1 (stereo not shown) [compound 209]	< 10	< 10	< 100	< 100					
CNC1CCCN(c2ccc(Nc3nccc(-c4ccn5ncc(C(C)C)c5c4)n3)cc2)C1=O (stereo not shown) [compound 215]	< 10	< 10	< 100		< 10				
CNC1CCCN(c2ccc(Nc3nccc(-c4ccn5nc(C)c(C(C)C)c5c4)n3)cc2)C1=O (stereo not shown) [compound 217]	10 to 100	< 10	< 100		< 10				
CC(C)c1cnn2ccc(-c3ccnc(Nc4ccc(N5CCNCC5=O)cc4)n3)cc12 [compound 226]	< 10	< 10	< 100		< 10				
CC(C)c1cnn2ccc(-c3ccnc(Nc4ccc(N5CCNCC5=O)nc4)n3)cc12 [compound 227]	< 10	< 10	< 100	< 100					
CC(C)n1cnc2c1CN(c1ccnc(Nc3ccc(N4CCN(S(C)(=O)=O)CC4=O)cn3)n1)CC2 [compound 240]	10 to 100	10 to 100	> 1000	> 1000					
CC(C)n1cnc2c(F)nc(-c3ccnc(Nc4ccc(N5CCN(C)CC5)cn4)n3)cc21 [compound 290]	100 to 1000	< 10		< 100					
N-[5-[4-(dimethylamino)-1-piperidyl]-2-pyridyl]-4-(3-isopropylpyrazolo[1,5-a]pyridin-5-yl)pyrimidin-2-amine [Synthetic Example 161]									< 100
